For experiment [1] the following is noted: previous experiments; read-out: EC50 liposome leakage, previous experiments; cited from earlier work. The procedure: The ability of the Parborlasia peptides to permeabilize reconstituted E. coli phospholipid membranes was tested in a liposome-based assay. The peptides display the typical steep logarithmic AMP leakage kinetic (Figure 8). […] The 3624 Da peptide was tested in a single experiment series in this assay. The 26-residue long bee venom peptide melittin was used as a reference ...

A short description of experiment [2]: Bacterial membrane permeabilization assay (carboxyfluorescein leakage from liposomes). In kind it is biochemical, Escherichia coli. The settings on record: E. coli polar lipid extract liposomes, 10 µM lipid, Tris 10 mM pH 7.4, 45 min, carboxyfluorescein fluorescence; EC50 fixed at 50% of maximum leakage (Triton X-100); mean of four experiments; read-out: EC50 liposome leakage. The method, then:
Liposomes were manufactured and permeabilization-assayed as described previously. Briefly, lipid films of Escherichia coli polar lipid extract were deposited on round-bottom flask walls. The lipid films were re-suspended at 55 °C in an aqueous solution of 100 mM of 5(6)-carboxyfluorescein in Tris buffer. The suspensions were subjected to repeated extrusion through a 100 nm polycarbonate membrane in order to reduce multilamellar structures and polydispersity. Un-trapped carboxyfluorescein was removed by gel filtration. Membrane permeability was measured by monitoring carboxyfluorescein efflux from the liposomes to the external low-concentration environment, resulting in a loss of self-quenching and an increased fluorescence signal. The 96-well plates were prepared with a 2-fold serial dilution of the peptides in Tris buffer (10 mM, pH 7.4), and controls without peptides (background) and 0.16% Triton X-100 (maximum leakage). The plates were administered a liposome solution to a final lipid concentration of 10 μM in 200 µL. The effects of each peptide concentration on the liposomes were monitored for 45 min, at which point the initial leakage had largely subsided. The results shown represent the mean from four experiments (one for 3624 Da) with standard deviations and are expressed as the percent of total leakage generated with Triton X-100 and subtraction of the baseline value. […]

Where two headings read alike, the source gives them in different places.

Regarding Melittin, the EC50 in experiment [1] is 400 nM; in experiment [2], 300 nM.

(Values after publication PMC11126048, “Peptide Toxins from Antarctica: The Nemertean Predator and Scavenger Parborlasia corrugatus (McIntosh, 1876)” (Toxins, 2024).)
